From patent US8765773B2, “Substituted hydroxamic acids and uses thereof” (Millennium Pharmaceuticals, Inc., priority 2010, dated 2014)

Molecular target: T1, purified human HDAC6 (Homo sapiens, UniProt Q9UBN7)
T1 construct: purchased BPS Bioscience 5006
T1 sequence (Q9UBN7 1-1215): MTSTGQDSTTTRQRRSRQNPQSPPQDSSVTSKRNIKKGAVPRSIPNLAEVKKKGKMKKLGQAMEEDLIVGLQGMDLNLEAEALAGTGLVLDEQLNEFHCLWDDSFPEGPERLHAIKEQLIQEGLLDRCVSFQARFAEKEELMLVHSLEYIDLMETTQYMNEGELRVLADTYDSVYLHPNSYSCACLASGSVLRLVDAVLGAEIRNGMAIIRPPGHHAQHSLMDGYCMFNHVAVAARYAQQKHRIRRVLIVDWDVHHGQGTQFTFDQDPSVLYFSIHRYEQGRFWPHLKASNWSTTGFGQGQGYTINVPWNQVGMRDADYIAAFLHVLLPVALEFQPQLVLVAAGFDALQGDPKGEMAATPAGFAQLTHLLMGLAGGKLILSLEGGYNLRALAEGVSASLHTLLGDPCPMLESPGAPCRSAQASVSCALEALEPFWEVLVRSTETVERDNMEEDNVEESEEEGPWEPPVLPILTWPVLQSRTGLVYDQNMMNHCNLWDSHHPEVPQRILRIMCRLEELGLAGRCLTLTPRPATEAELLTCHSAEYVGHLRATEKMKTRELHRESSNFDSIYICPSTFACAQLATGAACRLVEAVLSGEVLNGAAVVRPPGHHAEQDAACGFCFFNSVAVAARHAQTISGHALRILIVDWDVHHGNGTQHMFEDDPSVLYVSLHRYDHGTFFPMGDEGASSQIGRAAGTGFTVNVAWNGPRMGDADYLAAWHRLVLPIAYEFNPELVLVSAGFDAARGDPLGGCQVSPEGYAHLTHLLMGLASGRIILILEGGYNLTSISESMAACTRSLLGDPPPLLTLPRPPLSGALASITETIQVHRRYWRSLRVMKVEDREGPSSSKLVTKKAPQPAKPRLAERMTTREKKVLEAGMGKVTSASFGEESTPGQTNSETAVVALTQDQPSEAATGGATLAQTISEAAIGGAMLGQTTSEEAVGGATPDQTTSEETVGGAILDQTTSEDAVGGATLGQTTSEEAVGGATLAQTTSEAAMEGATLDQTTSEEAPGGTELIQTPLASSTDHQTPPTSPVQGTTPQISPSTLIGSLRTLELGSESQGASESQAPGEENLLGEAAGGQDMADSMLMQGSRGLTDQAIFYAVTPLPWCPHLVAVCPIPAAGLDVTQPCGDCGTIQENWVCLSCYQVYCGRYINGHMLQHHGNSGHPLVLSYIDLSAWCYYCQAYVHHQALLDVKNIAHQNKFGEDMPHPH
Assay: HDAC6 Enzyme Assay
Type: biochemical
Details: compound concentration 0.37 μM, read-out: Percent Inhibition
Method in brief: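 Readout is AMC fluorescence (Ex 340 nm, Em 460 nm) after trypsin cleavage of the deacetylated Ac-Arg-Gly-Lys(Ac)-AMC product. Reaction: purified human HDAC6, compound or vehicle, 1 hour, 30° C, quenched by trichostatin A. Single-concentration percent inhibition or IC50 calculated versus DMSO-treated samples.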

Row | inhibition at 0.37 µM [%] | SMILES
1 | 92 | CC(C)(C)C(=O)Nc1ncccc1-c1cccc(CCn2cnc3ccc(C(=O)NO)cc3c2=O)c1 [Compound I-327, 3-[2-(3-{2-[(2,2-dimethylpropanoyl)amino]pyridin-3-yl}phenyl)ethyl]-N-hydroxy-4-oxo-3,4-dihydroquinazoline-6-carboxamide]
2 | 78.8 | CN(C)c1ccc(-c2nc3cc(C(=O)NO)ccc3c(=O)n2Cc2ccc(C(F)(F)F)cc2)cc1 [Compound I-274, 2-[4-(dimethylamino)phenyl]-N-hydroxy-4-oxo-3-[4-(trifluoromethyl)benzyl]-3,4-dihydroquinazoline-7-carboxamide]
3 | 95.3 | CS(=O)(=O)c1cccc(Cn2cnc3ccc(C(=O)NO)cc3c2=O)c1 [Compound I-135, N-hydroxy-3-[3-(methylsulfonyl)benzyl]-4-oxo-3,4-dihydroquinazoline-6-carboxamide]
4 | 94.6 | O=C(NO)c1ccc2ccn(-c3ccccc3Cl)c(=O)c2c1 [Compound I-298, 2-(2-chlorophenyl)-N-hydroxy-1-oxo-1,2-dihydroisoquinoline-7-carboxamide]
5 | 96.7 | O=C(NO)c1ccc2ccn(-c3cccc(-c4ccncc4)c3)c(=O)c2c1 [Compound I-328, N-hydroxy-1-oxo-2-(3-pyridin-4-ylphenyl)-1,2-dihydroisoquinoline-7-carboxamide]
6 | 80.2 | Cc1ncc(-c2nc3cc(C(=O)NO)ccc3c(=O)n2Cc2ccc(C(F)(F)F)cc2)n1C [Compound I-138, 2-(1,2-dimethyl-1H-imidazol-5-yl)-N-hydroxy-4-oxo-3-[4-(trifluoromethyl)benzyl]-3,4-dihydroquinazoline-7-carboxamide]
7 | 49.2 | COCc1cn(Cc2ccccc2)c(=O)c2cc(C(=O)NO)ccc12 [Compound I-394, 2-benzyl-N-hydroxy-4-(methoxymethyl)-1-oxo-1,2-dihydroisoquinoline-7-carboxamide]
8 | 84.5 | O=C(NO)c1ccc2c(=O)n(Cc3ccc(C(F)(F)F)cc3)c(CCc3ccccc3)nc2c1 [Compound I-39, N-hydroxy-4-oxo-2-(2-phenylethyl)-3-[4-(trifluoromethyl)benzyl]-3,4-dihydroquinazoline-7-carboxamide]
9 | 91.2 | O=C(NO)c1ccc2ccn(CCc3cccc(C4CCNCC4)c3)c(=O)c2c1 [Compound I-324, N-hydroxy-1-oxo-2-[2-(3-piperidin-4-ylphenyl)ethyl]-1,2-dihydroisoquinoline-7-carboxamide]

Same assay, conditions: compound concentration 0.412 μM, read-out: Percent Inhibition

Row | inhibition at 0.412 µM [%] | SMILES
10 | 98.5 | O=C(NO)c1ccc2ccn(CCOc3ccccc3-n3cccc3)c(=O)c2c1 [Compound I-71, N-hydroxy-1-oxo-2-{2-[2-(1H-pyrrol-1-yl)phenoxy]ethyl}-1,2-dihydroisoquinoline-7-carboxamide]
11 | 42.4 | Nc1nc2cc(C(=O)NO)ccc2c(=O)[nH]1 [Compound I-199, 2-amino-N-hydroxy-4-oxo-3,4-dihydroquinazoline-7-carboxamide]
12 | 73.2 | O=C(NO)c1ccc2c(=O)[nH]c(-c3cccc(C(F)(F)F)c3)nc2c1 [Compound I-260, N-hydroxy-4-oxo-2-[3-(trifluoromethyl)phenyl]-3,4-dihydroquinazoline-7-carboxamide]
13 | 84.5 | Cc1ccn(CCn2ccc3ccc(C(=O)NO)cc3c2=O)n1 [Compound I-10, N-hydroxy-2-[2-(3-methyl-1H-pyrazol-1-yl)ethyl]-1-oxo-1,2-dihydroisoquinoline-7-carboxamide]
14 | 91.8 | CCCC(C)n1ccc2ccc(C(=O)NO)cc2c1=O (centres unmarked) [Compound I-44, N-hydroxy-2-(1-methylbutyl)-1-oxo-1,2-dihydroisoquinoline-7-carboxamide]
15 | 96.7 | O=C(NO)c1ccc2ccn(Cc3ccc(-n4cccn4)cc3)c(=O)c2c1 [Compound I-289, N-hydroxy-1-oxo-2-[4-(1H-pyrazol-1-yl)benzyl]-1,2-dihydroisoquinoline-7-carboxamide]
16 | 95.3 | COc1ccc(CCn2ccc3ccc(C(=O)NO)cc3c2=O)cc1 [Compound I-285, N-hydroxy-2-[2-(4-methoxyphenyl)ethyl]-1-oxo-1,2-dihydroisoquinoline-7-carboxamide]
17 | 70.9 | O=C(NO)c1ccc2cc[nH]c(=O)c2c1 [Compound I-232, N-hydroxy-1-oxo-1,2-dihydroisoquinoline-7-carboxamide]
18 | 95.5 | O=C(NO)c1ccc2ccn(CCCOc3ccc4c(c3)OCO4)c(=O)c2c1 [Compound I-191, 2-[3-(1,3-benzodioxol-5-yloxy)propyl]-N-hydroxy-1-oxo-1,2-dihydroisoquinoline-7-carboxamide]
19 | 98.1 | O=C(NO)c1ccc2ccn(CCCc3c[nH]c4ccccc34)c(=O)c2c1 [Compound I-95, N-hydroxy-2-[3-(1H-indol-3-yl)propyl]-1-oxo-1,2-dihydroisoquinoline-7-carboxamide]
20 | 96.1 | O=C(NO)c1ccc2ccn(CCCOc3cccc4c3CCC4)c(=O)c2c1 [Compound I-21, 2-[3-(2,3-dihydro-1H-inden-4-yloxy)propyl]-N-hydroxy-1-oxo-1,2-dihydroisoquinoline-7-carboxamide]
21 | 94.9 | CC(C)(C)c1ccc(Cn2cnc3ccc(C(=O)NO)cc3c2=O)cc1 [Compound I-288, 3-(4-tert-butylbenzyl)-N-hydroxy-4-oxo-3,4-dihydroquinazoline-6-carboxamide]
22 | 96.5 | O=C(NO)c1ccc2ccn(Cc3ccc4ccccc4c3)c(=O)c2c1 [Compound I-5, N-hydroxy-2-(2-naphthylmethyl)-1-oxo-1,2-dihydroisoquinoline-7-carboxamide]
23 | 95.9 | O=C(NO)c1ccc2c(=O)n(Cc3ccc(F)cc3)cnc2c1 [Compound I-209, 3-(4-fluorobenzyl)-N-hydroxy-4-oxo-3,4-dihydroquinazoline-7-carboxamide]
24 | 76.7 | CC(C)Cc1nc2cc(C(=O)NO)ccc2c(=O)n1Cc1ccc(C(F)(F)F)cc1 [Compound I-81, N-hydroxy-2-isobutyl-4-oxo-3-[4-(trifluoromethyl)benzyl]-3,4-dihydroquinazoline-7-carboxamide]
25 | 92.3 | O=C(NO)c1ccc2ccn(Cc3csc4ccc(Cl)cc34)c(=O)c2c1 [Compound I-211, 2-[(5-chloro-1-benzothien-3-yl)methyl]-N-hydroxy-1-oxo-1,2-dihydroisoquinoline-7-carboxamide]
26 | 98.7 | O=C(NO)c1ccc2ccn(CCOc3ccccc3Cl)c(=O)c2c1 [Compound I-204, 2-[2-(2-chlorophenoxy)ethyl]-N-hydroxy-1-oxo-1,2-dihydroisoquinoline-7-carboxamide]
27 | 78.9 | Cc1ccccc1OCc1nc2cc(C(=O)NO)ccc2c(=O)[nH]1 [Compound I-29, N-hydroxy-2-[(2-methylphenoxy)methyl]-4-oxo-3,4-dihydroquinazoline-7-carboxamide]
28 | 84.7 | O=C(NO)c1ccc2ncn(CC3CC3)c(=O)c2c1 [Compound I-25, 3-(cyclopropylmethyl)-N-hydroxy-4-oxo-3,4-dihydroquinazoline-6-carboxamide]
29 | 98.5 | O=C(NO)c1ccc2ccn(Cc3ccc4nonc4c3)c(=O)c2c1 [Compound I-290, 2-(2,1,3-benzoxadiazol-5-ylmethyl)-N-hydroxy-1-oxo-1,2-dihydroisoquinoline-7-carboxamide]
30 | 93.5 | CCCCC(CC)Cn1ccc2ccc(C(=O)NO)cc2c1=O (centres unmarked) [Compound I-94, 2-(2-ethylhexyl)-N-hydroxy-1-oxo-1,2-dihydroisoquinoline-7-carboxamide]
31 | 86.5 | O=C(NO)c1ccc2ccn(C3CCCC3)c(=O)c2c1 [Compound I-105, 2-cyclopentyl-N-hydroxy-1-oxo-1,2-dihydroisoquinoline-7-carboxamide]
32 | 99.4 | O=C(NO)c1ccc2ccn(Cc3cc(C(F)(F)F)ccc3C(F)(F)F)c(=O)c2c1 [Compound I-217, 2-[2,5-bis(trifluoromethyl)benzyl]-N-hydroxy-1-oxo-1,2-dihydroisoquinoline-7-carboxamide]
